Experimental findings from article PMC3328629 (2012) are described below.

Assay [1] concerns the target T1, S-adenosyl-L-homocysteine hydrolase (HsSAHH) (Homo sapiens, UniProt P23526).
T1 sequence (P23526 2-432): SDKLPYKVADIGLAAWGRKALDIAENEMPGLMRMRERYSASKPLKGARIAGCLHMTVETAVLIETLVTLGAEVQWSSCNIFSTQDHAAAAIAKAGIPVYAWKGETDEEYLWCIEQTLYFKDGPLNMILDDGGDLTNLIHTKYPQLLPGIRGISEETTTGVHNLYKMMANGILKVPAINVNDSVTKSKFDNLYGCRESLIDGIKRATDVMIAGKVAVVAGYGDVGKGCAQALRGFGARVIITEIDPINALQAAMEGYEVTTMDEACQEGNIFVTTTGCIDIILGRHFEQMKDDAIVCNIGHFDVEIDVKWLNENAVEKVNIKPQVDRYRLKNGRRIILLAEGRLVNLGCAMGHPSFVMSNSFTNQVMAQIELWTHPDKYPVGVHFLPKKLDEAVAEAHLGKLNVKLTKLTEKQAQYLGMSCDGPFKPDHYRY
The assay can be described thus: biochemical.

In assay [2] the target is T1, S-adenosyl-L-homocysteine hydrolase (HsSAHH).
Assay [3] shares this target. Description: luciferase-coupled adenosine assay. The assay is classed as biochemical.
Assay [4] shares this target. The assay can be described thus: Michaelis-Menten kinetics. The format is biochemical.

The structures appear in SMILES notation.

One may read the Ki as a measure of affinity in units of concentration, obtained from inhibition or displacement. A high value points to lower affinity. With `Nc1ncnc2c1ncn2C[C@@H](O)[C@@H](O)C(=O)O` [D-eritadenine], affinity in assay [1] was put at a Ki of 11.3 ± 0.6 nM.

In the case of `Nc1ncnc2c1ncn2[C@@H]1C=C(CO)[C@@H](O)[C@H]1O` [INH, neplanocin A], the “HPLC analysis of adenosine formation without coupling enzymes” value in assay [2] is listed as “Under these conditions (cf. Supplementary Methods, Supporting Information), INH totally inhibits SAHH”.

For `NC[C@H]1O[C@@H](n2cnc3c(N)ncnc32)[C@H](O)[C@@H]1O` [INH-1, 5′-deoxy-5′-amino-β-D-adenosine], the Ki in assay [3] is 2170 ± 80 nM.

By Km is commonly meant the substrate concentration at which the rate is half of its maximum. Take `Nc1ncnc2c1ncn2[C@@H]1O[C@H](CSCC[C@H](N)C(=O)O)[C@@H](O)[C@H]1O` [SAH, S-adenosyl-L-homocysteine]: the Michaelis constant (Km) in assay [4] was determined as 22 ± 2 µM.
